From US20220296618A1, “ANTI-INFLAMMATORY COMPOUNDS FOR USE IN THE TREATMENT OF DERMAL DISORDERS” (COUNCIL OF SCIENTIFIC & INDUSTRIAL RESEARCH, priority 2019, published 2022)

What was measured:
[1] = system: mice skin tissues; experiment: Tensile strength of skin tissues on day 8 after treatment for 7 days; type: in vivo
Protocol: Method: Fresh mice skin was treated once daily and stretched between the two ends of the tensile machine with a load of 100 kg with a stretching speed of 5 mm/min. (FIG. 9).

[2] = system: wound on the dorsal skin of diabetic (db/db) mice; experiment: Diabetic wound healing (1 cm^2 punch biopsy wound) in db/db mice, topical cream; type: in vivo; conditions: for Wound healing observed animals in a group on day 10 / % of Wound healing: topical once daily; for Wound healing observed animals in a group on day 10: 5 animals in the group; for % of Wound healing: day 10
Source text: Method: In this study, mice of db/db strain (age: 13-14 weeks) were used as this strain is more analogous to diabetic wound healing in humans. A 1 cm^2 wound was made using a punch biopsy on the dorsal side of the db/db mice under local anesthetic conditions. The animals were divided into 5 groups with 5 animals in each group as follows: • Group 1 (n=5): treated with vehicle alone (Diabetic Control Group). • Group 2 (n=5) treated with Compound 2 (2.5%) prepared in the vehicle. • Group 3 (n=5): treated with Compound 1 (0.625%) prepared in the vehicle. • Group 4 (n=5) treated with Compound 1 (1.25%) prepared in the vehicle. • Group 5 (n=5) treated with Compound 1 (2.5%) prepared in the vehicle. Three concentrations of Compound 1, i.e. 0.625%, 1.25%, and 2.5%, were tested for this study. The topical preparations were applied on the wound once daily for 12 days. Images of the wound area were visualized, and measurements of the wound area were recorded on each day of the study.

[3] = system: wound on the dorsal skin of non-diabetic C57 mice; experiment: Wound healing (1 cm^2 punch biopsy wound) in non-diabetic C57BL/6j mice, topical cream; type: in vivo; conditions: topical once daily for 12 days; for Wound healing observed animals in a group: 5 animals in the group
Source text: Method: In this study, C57BL/6j mice strain (age: 12 weeks) were used for studying the wound healing process. A 1 cm^2 wound was made using a punch biopsy on the dorsal side of the C57 mice. The animals were divided into 5 groups consisting of 5 animals in each group as follows: • Group 6 (n=5): treated with vehicle alone (Non-Diabetic Control Group). • Group 7 (n=5) treated with Compound 2 (2.5%) prepared in the vehicle. • Group 8 (n=5): treated with Compound 1 (0.625%) prepared in the vehicle. • Group 9 (n=5) treated with Compound 1 (1.25%) prepared in the vehicle. • Group 10 (n=5) treated with Compound 1 (2.5%) prepared in the vehicle. Three concentrations of Compound 1, i.e. 0.625%, 1.25%, and 2.5%, prepared in the vehicle were tested in this study. The topical preparations were applied on the wound once daily for 12 days starting 12 hours after the wound was created. Images of the wound area were visualized, and measurements of area were recorded on each day of the study.

[4] = system: surgical incision wound on rabbit skin; experiment: Incisional wound healing in rabbit, topical cream; type: in vivo, New Zealand rabbits; conditions: 2.5% in vehicle
Source text: In this study, New Zealand rabbits weighing between 2.0-2.5 kg body weight were used and divided into two groups;
Control Group: Treated with the vehicle alone.
Test Group: Treated with Compound 1 (2.5%) prepared in the vehicle.
Para vertebral straight incisions of 2 cm length each were made through the entire thickness of the skin on either side of the vertebral column with the help of a sharp scalpel. After complete haemostasis, the wound was closed by means of interrupted sutures placed at equidistance points about 1 cm apart (See FIG. 6). Animals were treated once daily from day 0 to day 14 post-wounding day. Images were taken daily during the study period. Sutures were removed on day 7 and observed for wound closure.

[5] = system: surgical incisional wound in diabetic (db/db) mice; experiment: Incisional wound healing in diabetic (db/db) mice, with or without SIRT1 inhibitor EX-527; type: in vivo; conditions: Group 12, 0.625% in vehicle, topical once daily for 7 days
Source text: In this study, mice of db/db strain (age: 12 weeks) were used. The animals were divided into four groups: • Group 11: Mice control treated with the vehicle alone. • Group 12 Mice treated with Compound 1 (0.625%) prepared in the vehicle. • Group 13 Mice treated with Compound 1 (0.625%) and EX-527 (0.025%) in the • vehicle. • Group 14: Mice treated with EX-527 (0.025%) in the vehicle.
Para vertebral straight incisions of 2 cm length and 1 mm depth each were made through the entire thickness of the skin, on either side of the vertebral column with the help of a sharp scalpel. After complete haemostasis, the wound was closed by means of interrupted sutures placed at equidistance points about 1 cm apart (See FIG. 8) All the groups were treated once daily for 7 days with the respective test and control preparations. Images of the wound area were taken on each day of the study by photographs and Doppler imaging. The wound area was measured using a transparent tracing sheet before and during the treatment to measure the wound closure at every 4 day interval.

[6] = system: IMQ-induced psoriasis in Balb/c mice; experiment: IMQ-induced psoriasis in Balb/c mice, PASI scoring; type: in vivo; conditions: topical 12 h after IMQ, day 1 to 6
Protocol: (§1) The effect of topical administration of Compound 1 for the treatment of psoriasis was tested in this animal study. In this study, typical features of psoriasis, namely erythema, scaling, and skin thickness, were induced by the application of 5% w/w imiquimod (IMQ) cream on the dorsal skin of Balb/c mice over a period of 6 consecutive days. Animals that developed psoriasis-like symptoms were used for studying the efficacy of the Compound 1 prepared in a vehicle (as described above). In this study, male Balb/c mice (aged 6 to 8 weeks) were used. The animals were divided into 8 groups consisting of 10 animals in each group as follows:
Animals in this group were topically treated with 62.5 mg of commercially available imiquimod cream (5%) on the shaved back for 6 consecutive days (day 1 to 6 of study) at a specific time in the morning. This negative control group represents the typical psoriatic model induced by imiquimod 5% (IMQ). […]
Psoriatic area and severity index (PASI) scoring was analyzed to determine the efficacy of compositions containing a Compound 1 with appropriate controls as part of the study. The severity of inflammation of the skin was evaluated by an objective scoring system based on the clinical PASI scores. Erythema (0-4) and scaling (0-4) were scored independently where, 0-none; 1-slight; 2-moderate; 3-marked; 4-very marked. […]

[7] = system: IL-23; experiment: IL-23 level in skin homogenate by ELISA, IMQ-induced psoriasis model; type: in vivo, Balb/c mice; conditions: day 7, ELISA
Protocol: as §1
An IMQ-induced psoriasis model reproduces biochemical and histopathological parameters characteristic of human psoriatic lesions. Topical application of the IMQ cream increased levels of cytokines including IL-23 and IL-17 in the treated skin tissues. The animals were euthanized on day 7. Spleen, liver and skin tissues were collected from all the animals Spleen and liver tissues were weighed. IL-17 and IL-23 levels were measured by ELISA using a commercially available kit. The skin homogenates obtained from mice of different groups were analyzed using ELISA for quantification of IL-17 and IL-23 levels as the selected interleukins are the typical inflammatory markers of psoriasis.

[8] = system: IMQ-induced psoriasis in Balb/c mice; experiment: Histopathology (H&E staining) of skin, IMQ-induced psoriasis model; type: in vivo; conditions: 0.625% preparation; comparable to clobetasol propionate cream
Protocol: As a part of the efficacy study, a histopathology study was performed to study the morphological observations of the skin of mice representative of the different treatment groups. At the end of experiment, skin samples of mice from each group were fixed in 4% paraformaldehyde and embedded in paraffin. From each paraffin block, 4 μm thick sections were made and mounted on the glass slides. The sections were stained by haematoxylin and eosin and images were taken and evaluated.

[9] = system: hepatic enzyme markers ALT and AST; conditions: intraperitoneally prior to treatment with t-butyl hydroperoxide; cited from earlier work

## NC(=O)C1CCCc2c1[nH]c1ccc(Cl)cc21 (centres unmarked) [EX527, 6-chloro-2,3,4,9-tetrahydro-1H-carbazole-1-carboxamide, reference compound]
[1]; 0.025%
  Tensile strength (N): 6.03 ± 2.51 N

## O=c1cc(CCCCCCCC[P+](c2ccccc2)(c2ccccc2)c2ccccc2)c2cc(O)c(O)cc2o1.[Br-] [Compound 1]
[2]; 0.625% in vehicle cream
  Wound healing observed animals in a group on day 10: 5
  % of Wound healing: 100%
[2]; 1.25% in vehicle cream
  Wound healing observed animals in a group on day 10: 4
  % of Wound healing: 90%
[2]; 2.5% in vehicle cream
  Wound healing observed animals in a group on day 10: 4
  % of Wound healing: 90%
[2]; Groups 3-5, 0.625%, 1.25% and 2.5% in vehicle, topical
  Day of complete closure of the wound: ≤ 10 days
[3]; 0.625% in vehicle cream
  % of Wound healing: 90%
  Wound healing observed animals in a group: 4
[3]; 1.25% in vehicle cream
  % of Wound healing: 90%
  Wound healing observed animals in a group: 4
[3]; 2.5% in vehicle cream
  % of Wound healing: 100%
  Wound healing observed animals in a group: 5
[4]; topical once daily day 0 to day 14
  Time of faster surgical wound healing versus Control Group: ≤ 8 days
[4]; topical once daily, compared to Control Group
  Surgical scar: No surgical scar was observed
[5]
  Time to complete healing of the incisional wound: ≤ 7 days
[1]; 0.625%
  Tensile strength (N): 55.33 ± 1.7 N
[6]; 0.313% in vehicle
  PASI scores over the treatment period: declines in PASI scores
[6]; 0.625% in vehicle
  PASI scores over the treatment period: better declines in PASI scores
[7]; 0.313% in vehicle
  IL-23 levels in skin tissue compared to the negative control: decline in IL-23 levels
[7]; 0.625% in vehicle
  IL-23 levels in skin tissue compared to the negative control: decline in IL-23 levels
[8]
  Histopathological amelioration of IMQ-induced psoriasis (skin and ear): ameliorated more

## O=c1ccc2cc(O)c(O)cc2o1 [Compound 2, 6,7-dihydroxycoumarin, reference compound]
[2]; 2.5% in vehicle cream
  Wound healing observed animals in a group on day 10: 0
  % of Wound healing: 0%
[2]; Group 2, 2.5% in vehicle, topical
  Day of wound closure: ≤ 26 days
[3]; 2.5% in vehicle cream
  % of Wound healing: 90%
  Wound healing observed animals in a group: 4
[9]
  Serum levels of hepatic enzyme markers ALT and AST: lower serum levels
